31 molecules from patent publication US20250197409A1, “BIFUNCTIONAL COMPOUND AND PHARMACEUTICAL COMPOSITION COMPRISING THE BIFUNCTIONAL COMPOUND, AND METHOD FOR TREATING ANDROGEN RECEPTOR RELATED DISEASE BY USING THE SAME” (ANHORN MEDICINES CO., LTD., priority 2022, published 2025) can be followed below.

The target in the first assay is T1, androgen receptor (Homo sapiens, UniProt P10275, T878A).
T1 construct: host or cells: LNCaP.FGC
T1 sequence (P10275 whole entry T878A): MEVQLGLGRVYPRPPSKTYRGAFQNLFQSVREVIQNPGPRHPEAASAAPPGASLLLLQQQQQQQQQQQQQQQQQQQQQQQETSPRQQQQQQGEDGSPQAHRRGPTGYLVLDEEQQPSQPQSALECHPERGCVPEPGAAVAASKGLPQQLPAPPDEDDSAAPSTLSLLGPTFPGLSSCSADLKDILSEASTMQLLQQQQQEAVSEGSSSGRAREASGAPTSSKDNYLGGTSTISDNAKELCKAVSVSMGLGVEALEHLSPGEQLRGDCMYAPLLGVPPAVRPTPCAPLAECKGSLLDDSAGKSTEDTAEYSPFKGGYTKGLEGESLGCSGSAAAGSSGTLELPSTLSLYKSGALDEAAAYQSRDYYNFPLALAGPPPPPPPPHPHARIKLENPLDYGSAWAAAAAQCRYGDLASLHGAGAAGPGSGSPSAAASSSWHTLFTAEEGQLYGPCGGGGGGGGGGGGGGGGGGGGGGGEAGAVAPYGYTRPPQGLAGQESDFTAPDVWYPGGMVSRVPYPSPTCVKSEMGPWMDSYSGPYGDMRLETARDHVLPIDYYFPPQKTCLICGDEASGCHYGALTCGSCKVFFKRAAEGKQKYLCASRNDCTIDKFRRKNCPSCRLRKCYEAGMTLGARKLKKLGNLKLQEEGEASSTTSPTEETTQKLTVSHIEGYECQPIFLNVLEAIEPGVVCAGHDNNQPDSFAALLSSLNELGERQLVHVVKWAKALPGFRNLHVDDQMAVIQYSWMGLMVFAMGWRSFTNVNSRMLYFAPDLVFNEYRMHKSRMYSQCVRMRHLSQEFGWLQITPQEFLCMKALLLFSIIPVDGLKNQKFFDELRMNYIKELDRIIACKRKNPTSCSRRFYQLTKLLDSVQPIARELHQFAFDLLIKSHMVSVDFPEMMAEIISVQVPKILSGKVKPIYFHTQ
T1 sequence (Q96SW2 whole entry partner): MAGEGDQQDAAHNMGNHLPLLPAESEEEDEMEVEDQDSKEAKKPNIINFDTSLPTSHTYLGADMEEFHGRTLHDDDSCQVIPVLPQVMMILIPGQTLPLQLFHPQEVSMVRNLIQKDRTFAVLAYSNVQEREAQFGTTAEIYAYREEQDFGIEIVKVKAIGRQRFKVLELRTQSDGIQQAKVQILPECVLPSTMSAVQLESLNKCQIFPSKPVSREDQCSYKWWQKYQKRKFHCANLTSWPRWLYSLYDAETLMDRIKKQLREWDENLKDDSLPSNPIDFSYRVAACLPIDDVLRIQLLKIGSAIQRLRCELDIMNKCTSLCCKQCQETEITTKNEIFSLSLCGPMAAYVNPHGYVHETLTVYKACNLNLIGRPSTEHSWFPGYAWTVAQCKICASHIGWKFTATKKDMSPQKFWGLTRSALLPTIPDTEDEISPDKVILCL
Briefly: Androgen receptor degradation assay using Western blot analysis. To be noted: LNCaP.FGC cells, serial 10x dilutions from 100 nM; read-out: AR DC50 (concentration needed for 50% AR degradation). The class given is cell-based. In a few lines:
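LNCaP.FGC cells (2×10^5/well) treated with 10-fold serial dilutions in RPMI from 100 nM stock; untreated cells as negative control. AR Western signal normalized to GAPDH, expressed as % remaining versus untreated (100%). DC50 derived from calibration curve of serial dilutions.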
On the technique in general: In western blotting, separated proteins are transferred to a membrane and probed.
Turning to `CC(COc1ccc2c3c(n(C)c2c1)C(=O)N(C1CCC(=O)NC1=O)C3=O)CN1CCN(c2ccc(C(=O)N[C@H]3CC[C@H](Oc4ccc(C#N)c(Cl)c4)CC3)nn2)CC1` (stereo partly shown) [Compound 188], the DC50 lay within 25 to 100 nM.

For `Cn1c2c(c3ccc(OCCCN4CCC5(CC4)CCN(c4ccc(C(=O)N[C@H]6CC[C@H](Oc7ccc(C#N)c(Cl)c7)CC6)nn4)CC5)cc31)C(=O)N(C1CCC(=O)NC1=O)C2=O` (stereo partly shown) [Compound 194], the DC50 lay within 10 to 25 nM.

For the molecule `Cn1c2c(c3ccc(OCCN4CCC5(CC4)CCN(c4ccc(C(=O)N[C@H]6CC[C@H](Oc7ccc(C#N)c(Cl)c7)CC6)nn4)CC5)cc31)C(=O)N(C1CCC(=O)NC1=O)C2=O` (stereo partly shown) [Compound 195], the DC50 is 10 to 25 nM.

As to `Cn1c2c(c3ccc(OCCCN4CC=C(c5ccc(C(=O)N[C@H]6CC[C@H](Oc7ccc(C#N)c(Cl)c7)CC6)nn5)CC4)cc31)C(=O)N(C1CCC(=O)NC1=O)C2=O` (stereo partly shown) [Compound 196], the DC50 is less than 10 nM.

On to `Cn1c2c(c3ccc(OCCN4CC=C(c5ccc(C(=O)N[C@H]6CC[C@H](Oc7ccc(C#N)c(Cl)c7)CC6)nn5)CC4)cc31)C(=O)N(C1CCC(=O)NC1=O)C2=O` (stereo partly shown) [Compound 197], for which the DC50 was in the range of 10 to 25 nM.

Turning to `CC(COc1ccc2c3c(n(C)c2c1)C(=O)N(C1CCC(=O)NC1=O)C3=O)CN1CC=C(c2ccc(C(=O)N[C@H]3CC[C@H](Oc4ccc(C#N)c(Cl)c4)CC3)nn2)CC1` (stereo partly shown) [Compound 200], the DC50 was in the range of 10 to 25 nM.

With `Cn1c2c(c3ccc(OCCCN4CCN(c5ccc(C(=O)N[C@H]6CC[C@H](Oc7ccc(C#N)c(Cl)c7)CC6)nn5)CC4)cc31)C(=O)N(C1CCC(=O)NC1=O)C2=O` (stereo partly shown) [Compound 207], the DC50 is less than 10 nM.

As for `Cn1c2c(c3ccc(OCCN4CCC(c5ccc(C(=O)N[C@H]6CC[C@H](Oc7ccc(C#N)c(Cl)c7)CC6)nn5)CC4)cc31)C(=O)N(C1CCC(=O)NC1=O)C2=O` (stereo partly shown) [Compound 208], the DC50 is 10 to 25 nM.

`Cn1c2c(c3ccc(OC4CCN(CC5CCN(c6ccc(C(=O)N[C@H]7CC[C@H](Oc8ccc(C#N)c(Cl)c8)CC7)nn6)CC5)CC4)cc31)C(=O)N(C1CCC(=O)NC1=O)C2=O` (stereo partly shown) [Compound 215]: the DC50 lay in the range of 10 to 25 nM.

For `Cn1c2c(c3ccc(OC4CCN(CC5CCN(c6ccc(C(=O)N[C@H]7CC[C@@H](Oc8ccc(C#N)c(Cl)c8)CC7)nn6)CC5)CC4)cc31)C(=O)N(C1CCC(=O)NC1=O)C2=O` (stereo partly shown) [Compound 216], the DC50 is less than 10 nM.

For the molecule `Cn1c2c(c3ccc(OC4CCN(CC5CN(c6ccc(C(=O)N[C@H]7CC[C@H](Oc8ccc(C#N)c(Cl)c8)CC7)nn6)C5)CC4)cc31)C(=O)N(C1CCC(=O)NC1=O)C2=O` (stereo partly shown) [Compound 217], the DC50 was 10 to 25 nM.

Turning to `Cn1c2c(c3ccc(OC4CCN(CC5CCN(c6ccc(C(=O)N[C@H]7C(C)(C)[C@H](Oc8ccc(C#N)c(Cl)c8)C7(C)C)cc6)CC5)CC4)cc31)C(=O)N(C1CCC(=O)NC1=O)C2=O` (stereo partly shown) [Compound 219], the DC50 lay in the range of 25 to 100 nM.

The same assay, now with this note: read-out: AR DC50 (concentration needed for 50% AR degradation); LNCaP.FGC cells, serial 10x dilutions from 100 nM.
With `CC(COc1ccc2c3c(n(C)c2c1)C(=O)N(C1CCC(=O)NC1=O)C3=O)CN1CCN(c2ccc(C(=O)N[C@H]3CC[C@H](N(C)c4ccc(C#N)c(Cl)c4)CC3)nn2)CC1` (stereo partly shown) [Compound 189], the DC50 lay within 10 to 25 nM.

With `CCn1c2c(c3ccc(OCCCN4CC=C(c5ccc(C(=O)N[C@H]6CC[C@H](Oc7ccc(C#N)c(Cl)c7)CC6)nn5)CC4)cc31)C(=O)N(C1CCC(=O)NC1=O)C2=O` (stereo partly shown) [Compound 190], the DC50 fell in the range of 10 to 25 nM.

Take `CCn1c2c(c3ccc(OCCN4CC=C(c5ccc(C(=O)N[C@H]6CC[C@H](Oc7ccc(C#N)c(Cl)c7)CC6)nn5)CC4)cc31)C(=O)N(C1CCC(=O)NC1=O)C2=O` (stereo partly shown) [Compound 191]: the DC50 is less than 10 nM.

For the molecule `CCn1c2c(c3ccc(OCC(C)CN4CCN(c5ccc(C(=O)N[C@H]6CC[C@H](Oc7ccc(C#N)c(Cl)c7)CC6)nn5)CC4)cc31)C(=O)N(C1CCC(=O)NC1=O)C2=O` (stereo partly shown) [Compound 192], the DC50 lay in the range of 25 to 100 nM.

As to `CCn1c2c(c3ccc(OCC(C)CN4CCN(c5ccc(C(=O)N[C@H]6CC[C@H](N(C)c7ccc(C#N)c(Cl)c7)CC6)nn5)CC4)cc31)C(=O)N(C1CCC(=O)NC1=O)C2=O` (stereo partly shown) [Compound 193], the DC50 is 25 to 100 nM.

With `Cn1c2c(c3ccc(OCCCN4CCC5(CC4)CCN(c4ccc(C(=O)N[C@H]6CC[C@H](N(C)c7ccc(C#N)c(Cl)c7)CC6)nn4)CC5)cc31)C(=O)N(C1CCC(=O)NC1=O)C2=O` (stereo partly shown) [Compound 198], the DC50 is less than 10 nM.

For the molecule `Cn1c2c(c3ccc(OCCN4CCC5(CC4)CCN(c4ccc(C(=O)N[C@H]6CC[C@H](N(C)c7ccc(C#N)c(Cl)c7)CC6)nn4)CC5)cc31)C(=O)N(C1CCC(=O)NC1=O)C2=O` (stereo partly shown) [Compound 199], the DC50 is 10 to 25 nM.

Take `CCn1c2c(c3ccc(OCCCN4CC=C(c5ccc(C(=O)N[C@H]6CC[C@H](N(C)c7ccc(C#N)c(Cl)c7)CC6)nn5)CC4)cc31)C(=O)N(C1CCC(=O)NC1=O)C2=O` (stereo partly shown) [Compound 201]: the DC50 lay in the range of 10 to 25 nM.

Consider `CCn1c2c(c3ccc(OCCN4CC=C(c5ccc(C(=O)N[C@H]6CC[C@H](N(C)c7ccc(C#N)c(Cl)c7)CC6)nn5)CC4)cc31)C(=O)N(C1CCC(=O)NC1=O)C2=O` (stereo partly shown) [Compound 202], for which the DC50 lay within 25 to 100 nM.

Consider `CCn1c2c(c3ccc(OC4CCN(CC5CCN(c6ccc(C(=O)N[C@H]7CC[C@H](Oc8ccc(C#N)c(Cl)c8)CC7)nn6)CC5)CC4)cc31)C(=O)N(C1CCC(=O)NC1=O)C2=O` (stereo partly shown) [Compound 203], for which the DC50 was less than 10 nM.

Regarding `CCn1c2c(c3ccc(OC4CCN(CC5CCN(c6ccc(C(=O)N[C@H]7CC[C@@H](Oc8ccc(C#N)c(Cl)c8)CC7)nn6)CC5)CC4)cc31)C(=O)N(C1CCC(=O)NC1=O)C2=O` (stereo partly shown) [Compound 204], the DC50 fell in the range of 10 to 25 nM.

In the case of `CCn1c2c(c3ccc(OCCCN4CCN(c5ccc(C(=O)N[C@H]6CC[C@H](Oc7ccc(C#N)c(Cl)c7)CC6)nn5)CC4)cc31)C(=O)N(C1CCC(=O)NC1=O)C2=O` (stereo partly shown) [Compound 205], the DC50 was less than 10 nM.

On to `CCn1c2c(c3ccc(OCCN4CCC(c5ccc(C(=O)N[C@H]6CC[C@H](Oc7ccc(C#N)c(Cl)c7)CC6)nn5)CC4)cc31)C(=O)N(C1CCC(=O)NC1=O)C2=O` (stereo partly shown) [Compound 206], for which the DC50 lay in the range of 10 to 25 nM.

Turning to `CCn1c2c(c3ccc(OC(C)CCN4CCN(c5ccc(C(=O)N[C@H]6CC[C@H](Oc7ccc(C#N)c(Cl)c7)CC6)nn5)CC4)cc31)C(=O)N(C1CCC(=O)NC1=O)C2=O` (stereo partly shown) [Compound 209], the DC50 lay in the range of 10 to 25 nM.

Take `CCn1c2c(c3ccc(OC4CCN(CC5CN(c6ccc(C(=O)N[C@H]7CC[C@H](Oc8ccc(C#N)c(Cl)c8)CC7)nn6)C5)CC4)cc31)C(=O)N(C1CCC(=O)NC1=O)C2=O` (stereo partly shown) [Compound 210]: the DC50 was 10 to 25 nM.

Take `CCn1c2c(c3ccc(OC(C)CCN4CCC(c5ccc(C(=O)N[C@H]6CC[C@H](Oc7ccc(C#N)c(Cl)c7)CC6)nn5)CC4)cc31)C(=O)N(C1CCC(=O)NC1=O)C2=O` (stereo partly shown) [Compound 211]: the DC50 was less than 10 nM.

Regarding `CCn1c2c(c3ccc(OC4CCN(CC5CCN(c6ccc(C(=O)N[C@H]7C(C)(C)[C@H](Oc8ccc(C#N)c(Cl)c8)C7(C)C)nn6)CC5)CC4)cc31)C(=O)N(C1CCC(=O)NC1=O)C2=O` (stereo partly shown) [Compound 212], the DC50 is 25 to 100 nM.

`CCn1c2c(c3ccc(OC4CCN(CC5CCN(c6ccc(C(=O)N[C@H]7C(C)(C)[C@@H](Oc8ccc(C#N)c(Cl)c8)C7(C)C)nn6)CC5)CC4)cc31)C(=O)N(C1CCC(=O)NC1=O)C2=O` (stereo partly shown) [Compound 213]: the DC50 is 10 to 25 nM.

Take `CCn1c2c(c3ccc(OC4CCN(CC5CCN(c6ccc(C(=O)N[C@H]7C(C)(C)[C@H](Oc8ccc(C#N)c(Cl)c8)C7(C)C)cc6)CC5)CC4)cc31)C(=O)N(C1CCC(=O)NC1=O)C2=O` (stereo partly shown) [Compound 214]: the DC50 was more than 100 nM.
